In patent US20190381017A1, “Compositions Comprising Serdexmethylphenidate Conjugates And Methods Of Use Thereof” (KemPharm, Inc., priority 2018, published 2019):
Counter-ions that a name gives are not always drawn.

Experiments:
[1] = system: healthy, nondependent, recreational stimulant users with intranasal insufflation experience; test: Treatment-emergent adverse events, intranasal study (Example 5, Table 54)
Method: The study consisted of a Screening Period, an in-clinic Drug Discrimination Phase, a Treatment Phase, and a Follow-Up Visit.
All subjects were required to fast for at least 8 hours prior to each dose of study drug until approximately 4 hours after each dose. Abuse potential measures and pharmacokinetic samples were collected at different times after the administration of study drug. Subjects who successfully completed the Drug Discrimination Phase and who qualified for the Treatment Phase remained as inpatients to enter the Treatment Phase.

[2] = system: recreational stimulant users; test: Treatment-emergent adverse events, intravenous study (Example 2); conditions: SDX Cl 30 mg (N=31), d-MPH HCl 15 mg (N=30)
Method: A study was conducted in humans to assess the intravenous abuse potential of serdexmethylphenidate relative to unconjugated d-methylphenidate and placebo in recreational stimulant abusers. This was a Phase 1, randomized, double-blind study in which serdexmethylphenidate and d-methylphenidate were administered intravenously in recreational stimulant users with a history of non-oral abuse. In Part A of the study, subjects (Cohort 1) participated in a dose-escalation phase to determine the optimal dose of intravenous d-methylphenidate based on tolerability and abuse-related pharmacodynamic assessments. […] The doses of serdexmethylphenidate and d-methylphenidate are equivalent with respect to molar amount of d-methylphenidate. FDA-recommended abuse potential measures and blood samples were collected at different times after dosing. Safety assessments were performed throughout the study.

[3] = d-MPH HCl 40 mg (N = 46), SDX Cl 80 mg (N = 46)

COC(=O)[C@H](c1ccccc1)[C@H]1CCCCN1C(=O)OC[n+]1cccc(C(=O)N[C@@H](CO)C(=O)O)c1.[Cl-] [serdexmethylphenidate chloride]
nasal discomfort, nasal congestion, rhinorrhoea, epistaxis, increased lacrimation, frequency vs intranasal d-MPH HCl ([1]; SDX Cl 80 mg vs d-MPH HCl 40 mg): occurred more often
TEAE: Back pain [1, 3]: 0 n (%) [E]
TEAE: Blood pressure diastolic increased [1, 3]: 0 n (%) [E]
TEAE: Bruxism [1, 3]: 0 n (%) [E]
TEAE: Change in sustained attention [1, 3]: 0 n (%) [E]
TEAE: Chest discomfort [1, 3]: 0 n (%) [E]
TEAE: Decreased appetite [1, 3]: 0 n (%) [E]
TEAE: Defaecation urgency [1, 3]: 0 n (%) [E]
TEAE: Dry mouth [1, 3]: 0 n (%) [E]
TEAE: Dry throat [1, 3]: 0 n (%) [E]
TEAE: Dysmenorrhoea (menstrual cramps) [1, 3]: 0 n (%) [E]
TEAE: Dyspepsia [1, 3]: 0 n (%) [E]
TEAE: Energy increased [1, 3]: 0 n (%) [E]
TEAE: Eye irritation [1, 3]: 0 n (%) [E]
TEAE: Feeling hot [1, 3]: 0 n (%) [E]
TEAE: Flushing [1, 3]: 0 n (%) [E]
TEAE: Haematoma [1, 3]: 0 n (%) [E]
TEAE: Hypopnoea (shallow breathing) [1, 3]: 0 n (%) [E]
TEAE: Infections and infestations [1, 3]: 0 n (%) [E]
TEAE: Investigations [1, 3]: 0 n (%) [E]
TEAE: Metabolism and nutrition disorders [1, 3]: 0 n (%) [E]
TEAE: Muscle tightness [1, 3]: 0 n (%) [E]
TEAE: Muscle twitching [1, 3]: 0 n (%) [E]
TEAE: Neck pain [1, 3]: 0 n (%) [E]
TEAE: Obsessive-compulsive disorder [1, 3]: 0 n (%) [E]
TEAE: Peripheral swelling [1, 3]: 0 n (%) [E]
TEAE: Pharyngeal hypoaesthesia (numbness of throat) [1, 3]: 0 n (%) [E]
TEAE: Pharyngitis [1, 3]: 0 n (%) [E]
TEAE: Phlebitis superficial [1, 3]: 0 n (%) [E]
TEAE: Phonophobia (fear of loud noises) [1, 3]: 0 n (%) [E]
TEAE: Photophobia [1, 3]: 0 n (%) [E]
TEAE: Pyrexia [1, 3]: 0 n (%) [E]
TEAE: Reproductive system and breast disorders [1, 3]: 0 n (%) [E]
TEAE: Restlessness [1, 3]: 0 n (%) [E]
TEAE: Sinus tachycardia [1, 3]: 0 n (%) [E]
TEAE: Tachycardia [1, 3]: 0 n (%) [E]
TEAE: Testis discomfort [1, 3]: 0 n (%) [E]
TEAE: Vascular disorders [1, 3]: 0 n (%) [E]
TEAE: Ventricular extrasystoles [1, 3]: 0 n (%) [E]
TEAE: Vessel puncture site bruise [1, 3]: 0 n (%) [E]
TEAE: Vessel puncture site pain [1, 3]: 0 n (%) [E]
TEAE: Visual impairment [1, 3]: 0 n (%) [E]
TEAE: Vomiting [1, 3]: 0 n (%) [E]
TEAE Change in sustained attention, % of subjects [2]: (0.0) %
TEAE Change in sustained attention, n subjects [2]: 0
TEAE Dry mouth, % of subjects [2]: (0.0) %
TEAE Dry mouth, n subjects [2]: 0
TEAE Energy increased, % of subjects [2]: (6.5) %
TEAE Energy increased, n subjects [2]: 2
TEAE Euphoric mood, % of subjects [2]: (12.9) %
TEAE Euphoric mood, n subjects [2]: 4
TEAE Feeling abnormal, % of subjects [2]: (3.2) %
TEAE Feeling abnormal, n subjects [2]: 1
TEAE Feeling hot, % of subjects [2]: (6.5) %
TEAE Feeling hot, n subjects [2]: 2
TEAE Feeling jittery, % of subjects [2]: (0.0) %
TEAE Feeling jittery, n subjects [2]: 0
TEAE Feeling of relaxation, % of subjects [2]: (0.0) %
TEAE Feeling of relaxation, n subjects [2]: 0
TEAE Headache, % of subjects [2]: (3.2) %
TEAE Headache, n subjects [2]: 1
TEAE Heart rate increased, % of subjects [2]: (0.0) %
TEAE Heart rate increased, n subjects [2]: 0
TEAE Hyperhidrosis (sweaty hands), % of subjects [2]: (3.2) %
TEAE Hyperhidrosis (sweaty hands), n subjects [2]: 1
TEAE Hypervigilance, % of subjects [2]: (12.9) %
TEAE Hypervigilance, n subjects [2]: 4
TEAE Nausea, % of subjects [2]: (0.0) %
TEAE Nausea, n subjects [2]: 0
TEAE Palpitations, % of subjects [2]: (0.0) %
TEAE Palpitations, n subjects [2]: 0
TEAE Paraesthesia (tingling), % of subjects [2]: (0.0) %
TEAE Paraesthesia (tingling), n subjects [2]: 0
TEAE Sinus tachycardia, % of subjects [2]: (0.0) %
TEAE Sinus tachycardia, n subjects [2]: 0
TEAE Somnolence, % of subjects [2]: (3.2) %
TEAE Somnolence, n subjects [2]: 1
TEAE Tachycardia, % of subjects [2]: (0.0) %
TEAE Tachycardia, n subjects [2]: 0

COC(=O)[C@H](c1ccccc1)[C@H]1CCCCN1 [d-methylphenidate hydrochloride, d-threo-methylphenidate hydrochloride]
TEAE: Abdominal distension [1, 3]: 0 n (%) [E]
TEAE: Agitation [1, 3]: 0 n (%) [E]
TEAE: Arthralgia [1, 3]: 0 n (%) [E]
TEAE: Catheter site haematoma [1, 3]: 0 n (%) [E]
TEAE: Catheter site swelling [1, 3]: 0 n (%) [E]
TEAE: Chest pain [1, 3]: 0 n (%) [E]
TEAE: Claustrophobia [1, 3]: 0 n (%) [E]
TEAE: Cough [1, 3]: 0 n (%) [E]
TEAE: Dizziness [1, 3]: 0 n (%) [E]
TEAE: Dysgeusia [1, 3]: 0 n (%) [E]
TEAE: Dyspepsia [1, 3]: 0 n (%) [E]
TEAE: Ecchymosis (skin discoloration) [1, 3]: 0 n (%) [E]
TEAE: Epistaxis (nosebleed) [1, 3]: 0 n (%) [E]
TEAE: Eye pain [1, 3]: 0 n (%) [E]
TEAE: Feeling of relaxation [1, 3]: 0 n (%) [E]
TEAE: Head discomfort [1, 3]: 0 n (%) [E]
TEAE: Infections and infestations [1, 3]: 0 n (%) [E]
TEAE: Irritability [1, 3]: 0 n (%) [E]
TEAE: Lacrimation increased [1, 3]: 0 n (%) [E]
TEAE: Nasal dryness [1, 3]: 0 n (%) [E]
TEAE: Pharyngitis [1, 3]: 0 n (%) [E]
TEAE: Phlebitis superficial [1, 3]: 0 n (%) [E]
TEAE: Pyrexia [1, 3]: 0 n (%) [E]
TEAE: Rhinorrhoea (runny nose) [1, 3]: 0 n (%) [E]
TEAE: Sneezing [1, 3]: 0 n (%) [E]
TEAE: Upper-airway cough syndrome [1, 3]: 0 n (%) [E]
TEAE: Vomiting [1, 3]: 0 n (%) [E]
typical stimulant-related adverse events (euphoric mood, hypervigilance, cardiac palpitations, tachycardia), frequency vs intranasal SDX Cl ([1]; d-MPH HCl 40 mg vs SDX Cl 80 mg): occurred more often
TEAE Change in sustained attention, % of subjects [2]: (6.7) %
TEAE Change in sustained attention, n subjects [2]: 2
TEAE Dry mouth, % of subjects [2]: (20.0) %
TEAE Dry mouth, n subjects [2]: 6
TEAE Energy increased, % of subjects [2]: (3.3) %
TEAE Energy increased, n subjects [2]: 1
TEAE Euphoric mood, % of subjects [2]: (56.7) %
TEAE Euphoric mood, n subjects [2]: 17
TEAE Feeling abnormal, % of subjects [2]: (6.7) %
TEAE Feeling abnormal, n subjects [2]: 2
TEAE Feeling hot, % of subjects [2]: (20.0) %
TEAE Feeling hot, n subjects [2]: 6
TEAE Feeling jittery, % of subjects [2]: (6.7) %
TEAE Feeling jittery, n subjects [2]: 2
TEAE Feeling of relaxation, % of subjects [2]: (3.3) %
TEAE Feeling of relaxation, n subjects [2]: 1
TEAE Headache, % of subjects [2]: (3.3) %
TEAE Headache, n subjects [2]: 1
TEAE Heart rate increased, % of subjects [2]: (16.7) %
TEAE Heart rate increased, n subjects [2]: 5
TEAE Hyperhidrosis (sweaty hands), % of subjects [2]: (13.3) %
TEAE Hyperhidrosis (sweaty hands), n subjects [2]: 4
TEAE Hypervigilance, % of subjects [2]: (33.3) %
TEAE Hypervigilance, n subjects [2]: 10
TEAE Nausea, % of subjects [2]: (10.0) %
TEAE Nausea, n subjects [2]: 3
TEAE Palpitations, % of subjects [2]: (6.7) %
TEAE Palpitations, n subjects [2]: 2
TEAE Paraesthesia (tingling), % of subjects [2]: (6.7) %
TEAE Paraesthesia (tingling), n subjects [2]: 2
TEAE Sinus tachycardia, % of subjects [2]: (13.3) %
TEAE Sinus tachycardia, n subjects [2]: 4
TEAE Somnolence, % of subjects [2]: (13.3) %
TEAE Somnolence, n subjects [2]: 4
TEAE Tachycardia, % of subjects [2]: (13.3) %
TEAE Tachycardia, n subjects [2]: 4
